Tests used:
[1] = test system: patients of DFU with amputation criteria of the affected limb; test: Example 3: healing of DFU after intralesional rhEGF at different doses, three times a week then once a week, versus three times a week control; type: in vivo, human; settings: for Closure of the lesion (%) / Closure of the lesion, number of patients: three times a week then once a week, during follow-up; for Complete granulation response (%) / Complete granulation response, number of patients: at 8 weeks
Protocol: The route of administration was always the intralesional one. […] The doses administered per group were 2.5 μg, 25 μg, 50 μg and 75 μg. Seven patients were incorporated into the group that received 2.5 μg, 10 patients to the group that received the 25 μg dose; 13 patients to the group that received 50 μg and 18 patients in the group of 75 μg.
On the other hand, there was a group of 93 patients who were treated, during the whole period, with the dose of 75 μg three times a week. The period of treatment was 8 weeks.
Patients in all groups continued receiving the conventional therapy, which was performed according to the DFU standard treatment established by the National Angiology Group of Cuba, as summarized in Example 1.

patients with DFU [2] = test: Example 1: intralesional rhEGF in three treatment regimes, granulation, lesion closure and amputations in DFU patients; type: in vivo, human
Protocol: To do so, the reconstitution and dilution of the vial containing the drug was performed with 5 mL of water for injection. The administrations were made until 100% granulation of lesion, the closure of the lesion by grafting, or when a maximum of 8 weeks of treatment was attained.
Patients belonging to group 3 received the drug (75 μg/dose) three times a week, during the first week, by intralesional route. From the second week onward, the treatment continued with a dose of 225 μg, once a week. The treatment period was 8 weeks, although it was shorter if the complete closure of the lesion occurred earlier or if the ulcer reached a size smaller than 1 cm^2.
The formulated product was lyophilized in vials containing 25 μg or 75 μg of the active pharmaceutical ingredient. The composition also contained pharmaceutically acceptable excipients, such as stabilizers and pH regulators.
Patients in all three groups continued receiving conventional therapy, which was performed according to the DFU treatment standards established by the National Angiology Group of Cuba. This consists of: offloading of the lesion, metabolic control of the underlying disease with insulin (which replaces oral hypoglycemic agents), washing of the lesion with saline solution and mild soap substances, debridement, application of sterile dressings with gauze bandage, and antimicrobials, depending on the type of infectious germ present in the lesion.
The area of the DFU and the percentage of granulation were measured by a commercial system created for these purposes (Visitrak™, Smith & Nephew), which consists of grid transparent films and a device to measure the lesion by planimetry. This system has been previously validated (Sugama J, et al. J Clin Nurs 2007; 16 (7): 1265-1269). Using a permanent marker, the tracing of the contours of the lesion and the granulated regions, on the grid transparent film, was conducted.

[3] = test system: DFU patients with no amputation criteria of the limb; test: Example 4: healing of DFU after intralesional rhEGF once a week plus conventional therapy; type: in vivo, human
Protocol: The intralesional treatment with this growth factor was performed once a week, for 8 weeks, or for less time, if the lesion closed up to a dimension equal to or less than 1 cm^2. Another group of patients received conventional therapy only, with the difference that the procedure was performed three times a week, until the complete closure of the lesion was achieved.
The patients in these series had no amputation criteria of the limb affected by the DFU at the time of the initial evaluation. […] As mentioned before, conventional therapy in all patients was performed according to the standards of treatment for DFU established by the National Angiology Group of Cuba.

patients with DFU [4] = test: Example 5: case reports, injectable rhEGF once a week in DFU patients with no criteria for amputation; type: in vivo, human; settings: 75 μg once a week for two weeks
Text: The size of the lesion, after debridement, was 10 cm^2.
The ulcer base was covered with more than 75% of useful granulation tissue. The ulcer size was 7 cm^2.

DFU = settings: approved lyophilized medicament, intralesional; highest reduction in less complicated ulcers; cited from earlier work
[5] = Example 2: pharmacokinetic study, rhEGF levels in plasma of DFU patients after intralesional administration (ELISA); type: in vivo, human; settings: for Amount of rhEGF remaining in the area of the ulcer: bioavailability analysis; for AUC / t½: intralesional, plasma, immediately after the first administration
Protocol: A pharmacokinetic study was carried out, starting from blood samples taken from 31 patients. […] The most important parameters evaluated were the ‘Area under the Curve’ (AUC) and the half-life time (t½) among others. […] The treatment was performed for 8 weeks, or less time if the ulcer area reached a measure equal or less than 1 cm^2.
For the quantitation of this growth factor, the instructions of the kit manufacturer were followed.

[6] = 25 μg three times a week then once a week, n = 10
[7] = 50 μg three times a week then once a week, n = 13, at 3 weeks
[8] = 75 μg three times a week then once a week, n = 18
[9] = Control Group: 75 μg three times a week for 8 weeks, n = 93, at 3 weeks
[10] = Control Group: 75 μg three times a week for 8 weeks, n = 93
[11] = Group 1: 75 μg/dose three times a week, n = 45
[12] = Group 2: 25 μg/dose three times a week intralesional, n = 45, at 3 weeks
[13] = Group 2: 25 μg/dose three times a week, n = 45
[14] = Group 2: 25 μg/dose three times a week, n = 45, end of treatment
[15] = Group 3: 75 μg three times a week first week, then 225 μg once a week, n = 25
[16] = Group 3: 75 μg three times a week first week, then 225 μg once a week, n = 25, end of treatment
[17] = Group 3: 75 μg three times a week in first week, then 225 μg once a week, n = 25, at 3 weeks
[18] = 2.5 μg once a week plus conventional therapy, n = 10, between 8 and 12 weeks
[19] = 25 μg once a week plus conventional therapy, n = 15, between 8 and 12 weeks
[20] = 50 μg once a week plus conventional therapy, n = 15, between 8 and 12 weeks
[21] = 75 μg once a week plus conventional therapy, n = 20, between 8 and 12 weeks

recombinant human Epidermal Growth Factor [rhEGF]
Closure of the lesion (%) ([1]; 2.5 μg group): 57%
Closure of the lesion, number of patients ([1]; 2.5 μg group): 4
Objective granulation response (%) ([1]; 2.5 μg three times a week then once a week, n = 7, at 3 weeks): (57%)
Complete granulation response (%) ([1]; 2.5 μg three times a week then once a week, n = 7): (71%)
Objective granulation response, number of patients ([1]; 2.5 μg three times a week until no amputation criterion, then once a week, n = 7, ≥75% of lesion area granulated at 3 weeks): 4
Objective granulation response, number of patients ([1]; 25 μg three times a week then once a week, n = 10, at 3 weeks): 6
Complete granulation response (%) [1, 6]: (70%)
Complete granulation response, number of patients [1, 6]: 7
Closure of the lesion (%) ([1]; 50 μg group): 69%
Closure of the lesion, number of patients ([1]; 50 μg group): 9
Objective granulation response (%) [1, 7]: (61%)
Objective granulation response, number of patients [1, 7]: 8
Complete granulation response (%) ([1]; 50 μg three times a week then once a week, n = 13): (77%)
Closure of the lesion (%) ([1]; 75 μg group): 72%
Objective granulation response (%) ([1]; 75 μg three times a week then once a week, n = 18, at 3 weeks): (72%)
Complete granulation response (%) [1, 8]: (83%)
Complete granulation response, number of patients [1, 8]: 15
Objective granulation response (%) [1, 9]: (77%)
Objective granulation response, number of patients [1, 9]: 72
Complete granulation response (%) [1, 10]: (85%)
Complete granulation response, number of patients [1, 10]: 79
Closure of the lesion (% of the patients) ([1]; control group, 75 μg three administrations per week): 81%
Reduction in the risk of amputation ([1]; new treatment schedule (three times a week then once a week) along with conventional therapy): more than 80%
Amputations ([1]; the four groups that differed in the rhEGF dose and the control group): below 12%
Granulation Objective Response CR*+PR* (%) (patients with DFU [2]; Group 1: 75 μg/dose three times a week intralesional, n = 45, at 3 weeks): 75%
Granulation Objective Response CR*+PR*, number of patients (patients with DFU [2]; Group 1: 75 μg/dose three times a week intralesional, n = 45, at 3 weeks (>50% of lesion area covered by granulation tissue)): 34
Amputations, number of patients (patients with DFU [2]; [11]): 6
Lesion Closure, number of patients (patients with DFU [2]; [11]): 34
Granulation Complete Response CR (%) (patients with DFU [2]; Group 1: 75 μg/dose three times a week, n = 45, end of treatment): 80%
Granulation Complete Response CR, number of patients (patients with DFU [2]; Group 1: 75 μg/dose three times a week, n = 45, end of treatment (100% of lesion area granulated)): 36
Granulation Objective Response CR*+PR* (%) (patients with DFU [2]; [12]): 64%
Granulation Objective Response CR*+PR*, number of patients (patients with DFU [2]; [12]): 29
Amputations (%) (patients with DFU [2]; [13]): 22%
Lesion Closure, number of patients (patients with DFU [2]; [13]): 27
Granulation Complete Response CR (%) (patients with DFU [2]; [14]): 69%
Granulation Complete Response CR, number of patients (patients with DFU [2]; [14]): 31
Amputations, number of patients (patients with DFU [2]; [15]): 3
Lesion Closure, number of patients (patients with DFU [2]; [15]): 18
Granulation Complete Response CR (%) (patients with DFU [2]; [16]): 76%
Granulation Complete Response CR, number of patients (patients with DFU [2]; [16]): 19
Granulation Objective Response CR*+PR* (%) (patients with DFU [2]; [17]): 68%
Granulation Objective Response CR*+PR*, number of patients (patients with DFU [2]; [17]): 17
Closure of the Lesion No (%) [3, 18]: (40%)
Closure of the Lesion No, number of patients [3, 18]: 4
Closure of the Lesion Yes, number of patients ([3]; 2.5 μg once a week plus conventional therapy, n = 10, between 8 and 12 weeks after commencement): 6
Closure of the Lesion No (%) [3, 19]: (33%)
Closure of the Lesion Yes (%) [3, 19]: (67%)
Closure of the Lesion No (%) [3, 20]: (40%)
Closure of the Lesion No, number of patients [3, 20]: 6
Closure of the Lesion Yes, number of patients [3, 20]: 9
Closure of the Lesion No, number of patients [3, 21]: 4
Closure of the Lesion Yes (%) [3, 21]: (80%)
Closure of the Lesion Yes, number of patients [3, 21]: 16
Lesion closure, Patient A (patients with DFU [4]; Patient A, 10 cm^2 superficial lesion, after said time): complete closure of the lesion was attained
Time to closure of the lesion after the first application, Patient B (patients with DFU [4]; Patient B, 7 cm^2 deep lesion): 9 weeks
Granulation response, Patient B (patients with DFU [4]; Patient B, 7 cm^2 deep lesion, after said time): complete granulation response was obtained
Reduction of amputation rates (DFU): ≥ 70%
Amount of rhEGF remaining in the area of the ulcer ([5]; 25 μg dose): about 19 μg
AUC ([5]; 25 μg dose): 0.0851 ± 0.0502 ng·h/mL
t½ ([5]; 25 μg dose): 51 ± 46.8 min
Amount of rhEGF remaining in the area of the ulcer ([5]; 75 μg dose): ~58 µg
AUC ([5]; 75 μg dose): 0.1978 ± 0.0739 ng·h/mL
t½ ([5]; 75 μg dose): 39.6 ± 10.8 min
Amount of rhEGF remaining in the area of the ulcer ([5]; 225 μg dose): around 63 μg
AUC ([5]; 225 μg dose): 0.2886 ± 0.0894 ng·h/mL
t½ ([5]; 225 μg dose): 45 ± 12.6 min
Plasma rhEGF value after two hours of sample collection ([5]; independently of the dose received (25, 75, 225 μg)): returned to baseline levels
